# Assay results: a melting point compilation (Tetko et al.; mined from patent text by program, amines drawn as free bases though some values may be those of a salt)
row,melting point [°C],Compound
1,61 to 63,CCN(C)c1ccc(Cl)nn1
2,107 to 108,CCn1c(C)c(C(C)=O)c(N)c1-c1ccccc1
3,256 to 260,Cc1c(C)c(N2CCN(c3ccc(S(C)(=O)=O)cc3)CC2)c(C)c2c1OC(C)(C)C2
4,45 to 46,CCOC(=O)COc1cccc(CN2C(=O)C3(COc4cc5c(cc43)CCO5)c3ccccc32)c1 (centres undefined)
5,194 to 196,N#CCNC(=O)C1(NC(=O)c2ccc(CBr)cc2)CCCCC1
6,180,O=C(O)CCc1cc2nc(C(F)(F)F)ccc2n1S(=O)(=O)c1ccccc1
7,74 to 75,COC(=O)c1ccc(CBr)c(CBr)c1
8,140 to 141,O=C(CNC(=O)c1ccc(F)cc1)c1ccsc1
9,224,Cc1cnc(N2CCN(CC[C@H]3CC[C@H](NC(=O)C4CCOCC4)CC3)CC2)c2c1OCC2
10,162 to 165,CSc1ccc2c(SCc3ccc(N(CCO)CCO)cc3)ccnc2c1
11,149,Cc1ccc(S(=O)(=O)N2CCCC2c2ccccc2Cl)cc1 (racemic)
12,191,CC1(C)CC(=O)Nc2c(CCN3CCN(c4nsc5ccc(F)cc45)CC3)cc(F)cc21
13,105 to 106,CC(C)c1ccnc(NC(=S)NCCC2=CCCCC2)c1
14,225 to 230,c1ccc(-c2nc(-c3ccc4c(c3)OCO4)c3cc4c(cc3n2)OCO4)cc1
15,149 to 152,O=C(NCCO)c1cnc(-c2ccccc2)s1
16,150,O[C@H]1COC(c2ccccc2)=N[C@@H]1c1ccccc1 (racemic)
17,85 to 87,CC(=O)c1cccc(Oc2ncccc2NC(=O)Cc2ccc(C(C)(C)O)cc2)c1
18,145 to 147,O=C(Nc1cccc2ncccc12)C(Cl)(Cl)Cl
19,123 to 125,NC(Cc1cccc2cccc(Br)c12)=NO
20,266 to 269,O=S1(=O)c2ccccc2-c2nc3ccccc3c(Cl)c21
21,108 to 110,CC1(C(=O)Nc2ccc(-n3nc(C(F)(F)F)cc3C(F)(F)F)cc2)C=CCCC1 (centres undefined)
22,194,O=C(c1cc(=O)c2cc(O)ccc2[nH]1)N1CCC(Cc2ccc(Cl)cc2)CC1
23,52 to 54,CCN(CC)CCC(N)=NO

row,melting point [°C],Compound
1,181 to 182,CC(=O)c1ccc(C2COc3c(C)c(C)c(NC(=O)CC(C)(C)C)c(C)c32)cc1 (centres undefined)
2,216 to 220,COc1cccc2c(Nc3ccc(C(=O)NC4CCN(Cc5ccccc5)CC4)cc3)c(C(=O)NC3CCN(CCc4ccccc4)CC3)cnc12
3,90,CN1CCC(ON2C(=O)c3ccccc3C2=O)CC1
4,205,CCC1=C(C)CN(C(=O)NC2COc3cc(OC)c(S(=O)(=O)NC(=S)NC)cc3C2)C1=O (centres undefined)
5,68 to 70,O=Cc1ccc(OCc2ccccc2)cn1
6,73 to 74,CC(=O)NC(CCOC(C)=O)(CCOC(C)=O)CCc1ccccc1
7,58 to 60,Cc1ccc(S(=O)(=O)OCCc2cccc3[nH]cc(S(=O)(=O)c4ccccc4)c23)cc1
8,105,CSc1sc(C(N)=O)c(C(C)C)c1-c1oncc1C
9,203 to 205,Cc1ccc2c(n1)NC(C)C(=O)N2 (racemic)
10,143 to 144,CCOC(=O)c1cc(C)cc(-c2ccc(N(C)C)cc2)n1
11,271 to 272,Cn1nc(NC(=O)c2ccccc2)c2c(=O)n3c(nc21)SCC3
12,191,On1c(-c2ccccc2)c[nH]c1=S
13,79 to 85,COc1ccc(C(=O)C(CCc2cccc(OC)c2)c2ccccc2)cc1 (centres undefined)
14,76 to 84,CC(=O)OCC1COc2c(cc(Cl)cc2[N+](=O)[O-])N1 (centres undefined)
15,196 to 205,O=C(O)c1cc2c(c(O)c1Br)OCO2
16,105,CC(=O)OC1CSC(Oc2cccnc2CN(C)C)C(OC(C)=O)C1OC(C)=O (centres undefined)
17,140 to 145,CCOc1cc2ncc(C#N)c(C)c2cc1OCC
18,186 to 188,Cc1c(CC(=O)O)c2cc(OCc3nc4ccccc4s3)ccc2n1Cc1ccccc1
19,106 to 108,O=C1CCC(c2ccccc2)N1c1ccccc1 (centres undefined)
20,170 to 175,Nc1ccc(Cl)cc1C(=O)c1ccc(O)cc1
21,87 to 89,CC1(C)C2CC[C@]1(C)C(=O)C(C(=O)Nc1ccc(F)c(Cl)c1)C2=O (some centres undefined)
22,105 to 107,NC1CCc2ccccc2N(CC(=O)OCc2ccccc2)C1=O (centres undefined)
23,168 to 171,CCOc1cnc(C(C)(C)OC(=O)Nc2ccc(-c3ncn(-c4ccc(OC(F)(F)F)cc4)n3)cc2)nc1

row,melting point [°C],Compound
1,228 to 230,Cc1nc2ccccc2c(=O)n1NC(=O)Nc1ccc(Cl)cc1
2,162 to 169,Cc1ccc(S(=O)(=O)N2CCCC2C(=O)OC2c3cc(C#N)ccc3OC(C)(C)C2Br)cc1 (centres undefined)
3,209,COc1ncccc1-c1cncc(OC2SCC(O)C(O)C2O)c1 (centres undefined)
4,65 to 75,CCOC(=O)CC(C#N)(CC(=O)OCC)c1ccc(OC)cc1
5,62 to 63,CCCCCCCC[Si](C)(C)c1cccc(Cl)c1C(=O)NCC
6,235,CC(=O)N(C)c1ccc(N(CCCCN(c2ccc(N(C)C(C)=O)cc2)S(=O)(=O)c2ccccc2)S(=O)(=O)c2ccccc2)cc1
7,126 to 129,CCN1CCN(Cc2nc3sc(C)c(C)c3c(=O)n2-c2ccccc2Cl)CC1
8,271 to 274,Cc1c(F)c(F)c(Cl)c2c1c(=O)c(C(=O)O)cn2-c1cc(N)c(F)cc1F
9,68 to 69,Cc1nc(-c2ccc(OC(F)(F)F)cc2)ccc1CO
10,266,CC(=O)Nc1cccc2c1Cc1ccccc1C2=O
11,144 to 145,CN(c1ccccc1[N+](=O)[O-])S(C)(=O)=O
12,38 to 40,CC(C)(C)C=C[C@H](O)c1ccc(F)cc1
13,136 to 137,Cc1oc(-c2ccccc2)nc1CCOc1ccc(CCCCC2OC(=O)NC2=O)cc1 (centres undefined)
14,97 to 99,O=[N+]([O-])c1ccccc1C=[N+]([O-])c1cccc(CO)c1
15,123 to 124,CC(C)Cc1ccc(-c2ncccc2S(=O)(=O)Oc2ccc([N+](=O)[O-])cc2)cc1
16,169 to 171,O=C(O)c1ccccc1Sc1ccccc1[N+](=O)[O-]
17,146 to 149,Nc1ccc2sc(Cl)nc2c1
18,72 to 73,CC(C)(C#N)c1cc(CC#N)cc(C(C)(C)C#N)c1
19,110 to 112,CCCCN1CCC[C@H]1CNC(=O)c1cc(Cl)cc2c1OC(C)(C)CN2C
20,137 to 138,CCOC(=O)[C@H](Cc1ccc(O)cc1)NC(=O)C(C)(C)NC(=O)[C@@H](SC(C)=O)C(C)C
21,49 to 52,CC(=O)C(C)(C)COS(=O)(=O)c1ccc(C)cc1
22,135 to 139,Cc1cc(-n2nc(C(F)(F)F)cc2-c2ccc(-c3ccco3)cc2)ccc1S(C)(=O)=O
23,273 to 275,CNC(=O)c1ccc(-c2cnc3[nH]c(=O)n(CC4CCCCC4)c3n2)cc1

row,melting point [°C],Compound
1,217,COc1cc(C(=O)NCc2ccc(-c3csc(N)n3)s2)cc(OC)c1OC
2,149 to 150,CCOC(=O)c1cc2cc(N(CC)C(C)=O)ccc2[nH]1
3,115 to 116,NC(=O)COc1cccc(CCNS(=O)(=O)c2ccc(Br)cc2)c1
4,126 to 133,CC(C)(C)OC(=O)ON=C(c1ccccc1)c1ccccc1
5,219 to 221,CON=C1CN(c2c(F)cc3c(=O)c(C(=O)O)cn(C4CC4)c3c2OC)CC12CC2
6,174 to 176,CCN1c2ncc(CC(O)c3ccncc3)cc2C(=O)N(C)c2ccc(F)nc21 (centres undefined)
7,185,CC(C)(C)C(=O)N[C@H]1CC[C@H](CCN2CCN(c3nccc4c3CCO4)CC2)CC1
8,146,COC(=O)c1ccccc1S(=O)(=O)NC(=O)n1nc(C)n(C2CCCC2)c1=O
9,168 to 170,COC(=O)C1(NS(=O)(=O)c2ccc3c(Cl)cnc(Cl)c3c2)CCOCC1
10,307 to 310,CCCc1nc2c(C)cc(-c3nc4ccccc4n3C)cc2n1Cc1ccc(-c2ccccc2S(=O)(=O)O)cc1
11,113 to 116,CC(C)(C)NS(=O)(=O)c1c(CO)nsc1OCC(F)(F)F
12,158 to 160,OC1(C(F)(F)F)CC(c2ccc(Cl)cc2)=NN1Cc1cccnc1 (centres undefined)
13,140 to 141,Cc1cc(-c2cccc(C(F)(F)F)c2)c2nc(OCC(F)(F)F)nnc2c1
14,185,COc1ccc(S(=O)(=O)Nc2nc(-c3cccc([N+](=O)[O-])c3)cs2)cc1OC
15,105 to 117,OC1N=C(c2ccccc2Cl)c2cc(Cl)ccc2-c2ncncc21 (centres undefined)
16,167 to 168,O=c1c(Cl)c(OCc2ccc(Cl)cc2)cnn1-c1ccc(Cl)cc1F
17,139 to 140,Nc1cc(C(=O)O)cc(OCc2ccsc2)c1-c1ccccc1
18,195 to 196,COc1ccc(Cn2c(C(=O)O)c(-c3ccc4c(c3)OCO4)c3ccccc32)c(OCC(=O)O)c1
19,156 to 158,O=C(Nc1ccc(N2CCOCC2)cc1)N(C[C@H]1CC[C@H](CN(C(=O)Nc2ccc(N3CCOCC3)cc2)C2CCCCC2)CC1)C1CCCCC1
20,164 to 166,COC(=O)CC(NCCN(C)C)C(=O)O (centres undefined)
21,54,Nc1c(Cl)nc(C2CC2)nc1Cl
22,143,CC[C@H](Cc1sccc1Cl)Nc1ncnc2c1ncn2[C@@H]1C[C@H](CF)[C@@H](O)[C@H]1O

row,Compound,melting point [°C]
1,CN1CC2CC1CN2c1cncc(Cl)n1 (centres undefined),125 to 126
2,Cc1cccc(C)c1OP(=O)(c1ccccc1)c1cc(O)ccc1O (centres undefined),172
3,CN1C2CCC1C1CN(C(=O)N3c4ccccc4C(=O)Nc4cccnc43)CC12 (centres undefined),218 to 220
4,CC(=O)Nc1ccc2c(c1)CC(N(C)C)C2 (centres undefined),94 to 96
5,O=C(O)CCSC1c2ccccc2COc2ccc(OCc3ccc4ccc(OC(F)F)cc4n3)cc21 (centres undefined),180 to 184
6,Cc1cccc(NC(=O)NC2N=C(c3ccccc3F)c3cccc(C)c3N(CC(=O)c3ccccc3C)C2=O)c1 (centres undefined),190 to 196
7,CCCN(CCC)Cc1nc(-c2ncn3c2[C@@H]2CCCN2C(=O)c2cc(F)ccc2-3)no1,222 to 225
8,C=CCN(CC=C)Cc1nc(-c2ncn3c2CN(C)C(=O)c2c(Cl)cccc2-3)no1,126 to 130
